The text below walks through data of patent US10316017B2, “COT modulators and methods of use thereof” (Gilead Sciences, Inc., priority 2015, dated 2019).

As a reminder, the IC50 is the concentration that gives 50% inhibition. One may read the EC50 as the concentration at which the effect is half-maximal.

Experiment [1] has as its target T1, human Cot catalytic domain (30-397 amino acids) (Homo sapiens, UniProt P41279).
T1 construct: Purified recombinant human Cot catalytic domain (30-397 amino acids) was purchased from Cama Biosciences; purchased Cama Biosciences (so in the source)
Kind of experiment: High Throughput Cot Biochemical Assay (KinEASE TR-FRET). The settings on record: read-out: IC50 HTRF. The method, boiled down: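 TR-FRET (KinEASE) read-out: Eu-labelled phospho-specific antibody binds XL665-tagged STK3 peptide (1 μM) phosphorylated by 5 nM human Cot kinase domain (residues 30-397). Reaction at 400 μM ATP, pH 7.0 MOPS buffer with 10 mM MgOAc, 1 mM DTT and 0.1% DMSO.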
A general note: In TR-FRET formats the signal depends on donor and acceptor labels being close together.

For experiment [2], the system named is TNFα production in LPS-stimulated human monocytes. Kind of experiment: Cot Monocyte TNFα Cell Based Assay. The settings on record: Homo sapiens, Monocyte, read-out: EC50 TNF. The method, boiled down: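 TNFα release quantified by two-antibody TR-FRET, normalised to unstimulated (0%) and LPS-stimulated (100%) wells. Cells got a 1 h compound exposure at 37° C in 0.5% DMSO before 4 h challenge with 50 pg/ml LPS, at 5,000 cells/well.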

Setting [3] is: Cot KinEASE TR-FRET, 400 μM ATP.
[4] abbreviates: LPS-stimulated human monocytes, TNFα TR-FRET.
Setting [5] is: Cot biochemical HTRF (KinEASE TR-FRET) assay.
[6] abbreviates: TNFα in LPS-stimulated human monocytes.
Where [7] appears, read: Cot KinEASE TR-FRET (HTRF) biochemical assay, 400 μM ATP.

Where two headings read alike, the source gives them in different places. A value given as a limit tells only on which side of the number the result lay.

T1 sequence (P41279 30-397): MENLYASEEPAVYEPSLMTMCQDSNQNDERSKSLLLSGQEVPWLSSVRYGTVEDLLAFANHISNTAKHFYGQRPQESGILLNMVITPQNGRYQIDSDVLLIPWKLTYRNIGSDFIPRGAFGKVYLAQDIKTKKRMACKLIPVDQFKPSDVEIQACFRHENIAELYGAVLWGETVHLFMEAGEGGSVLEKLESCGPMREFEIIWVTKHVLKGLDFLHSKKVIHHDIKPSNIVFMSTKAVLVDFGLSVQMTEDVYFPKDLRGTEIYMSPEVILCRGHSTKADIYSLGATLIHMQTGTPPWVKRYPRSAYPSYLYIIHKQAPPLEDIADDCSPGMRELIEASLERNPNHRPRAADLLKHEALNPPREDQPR

As for `CC[C@@H](Nc1c(C#N)cnc2c(C#N)cc(N[C@@H](c3cccc(C(=O)NC)c3)c3cn(C4CC4)nn3)cc12)c1ccccc1` [Example 948, 3-((S)-(1-cyclopropyl-1H-1,2,3-triazol-4-yl) ((3,8-dicyano-4-(((R)-1-phenylpropyl)amino)quinolin-6-yl)amino)methyl)-N-methylbenzamide], in experiment [1] (setting [3]), the 50% inhibitory concentration (IC50) was determined as 1 nM. The EC50 in experiment [2] (setting [4]) turned out to be 78 nM.
As for `N#Cc1cnc2c(Cl)cc(N[C@H](c3c[nH]nn3)c3ccccc3C(F)(F)F)cc2c1Nc1cnc(F)c(F)c1` [Example 502, (S)-6-(((1H-1,2,3-triazol-4-yl)(2-(trifluoromethyl)phenyl)methyl)amino)-8-chloro-4-((5,6-difluoropyridin-3-yl)amino)quinoline-3-carbonitrile], the half-inhibitory concentration (IC50) in experiment [1] (setting [5]) turned out to be 160 nM. In experiment [2] (setting [6]), the EC50 was found to be 1950 nM.
As for `[2H][C@](Nc1cc(Br)c2ncc(C#N)c(NCC(C)(C)C)c2c1)(c1ccc(F)cc1)c1cn(C2CC2)nn1` [Example 287, (S)-8-bromo-6-(((1-cyclopropyl-1H-1,2,3-triazol-4-yl)(4-fluorophenyl)methyl-d)amino)-4-(neopentylamino)quinoline-3-carbonitrile], the IC50 in experiment [1] (setting [7]) is 10 nM. Also, in experiment [2] (setting [6]), the EC50 came out at 140 nM.
Take `[2H][C@](Nc1cc(Cl)c2ncc(C#N)c(NC3(C)COC3)c2c1)(c1ccc(F)cc1)c1cn(C2CC2)nn1` [Example 214, (S)-8-chloro-6-(((1-cyclopropyl-1H-1,2,3-triazol-4-yl)(4-fluorophenyl)methyl-d)amino)-4-((3-methyloxetan-3-yl)amino)quinoline-3-carbonitrile]: the IC50 in experiment [1] (setting [7]) amounted to 151 nM. Besides, the EC50 in experiment [2] (setting [6]) was 4220 nM.
`CC[C@@H](Nc1c(C#N)cnc2c(Cl)cc(N[C@@H](c3ccccc3)c3cn(C4CCN(C(C)(C)C)CC4)nn3)cc12)c1ccccc1` [Example 629, 6-(((S)-(1-(1-(tert-butyl)piperidin-4-yl)-1H-1,2,3-triazol-4-yl)(phenyl)methyl)amino)-8-chloro-4-(((R)-1-phenylpropyl)amino)quinoline-3-carbonitrile]: the IC50 in experiment [1] (setting [5]) worked out at 3 nM. Moreover, in experiment [2] (setting [6]), the EC50 amounted to 72 nM.
Take `[2H][C@](Nc1cc(Cl)c2ncc(C#N)c(NCC(C)(C)C)c2c1)(c1ccc(Cl)cc1)c1cn(C2CCN(C(C)(C)C)CC2)nn1` [Example 929, (S)-6-(((1-(1-(tert-butyl)piperidin-4-yl)-1H-1,2,3-triazol-4-yl)(4-chlorophenyl)methyl-d)amino)-8-chloro-4-(neopentylamino)quinoline-3-carbonitrile]: the IC50 in experiment [1] (setting [3]) was 7 nM. Moreover, the EC50 in experiment [2] (setting [4]) came to 98 nM.
Consider `N#Cc1cnc2c(Cl)cc(N[C@@H](c3ccc(F)cc3)c3cn(C4CC4)nn3)cc2c1Nc1cnc(F)c(Cl)c1` [Example 414, (S)-8-chloro-4-((5-chloro-6-fluoropyridin-3-yl)amino)-6-(((1-cyclopropyl-1H-1,2,3-triazol-4-yl)(4-fluorophenyl)methyl)amino) quinoline-3-carbonitrile], for which the IC50 in experiment [1] (setting [5]) turned out to be 4 nM. In experiment [2] (setting [6]), the EC50 worked out at 140 nM.
As to `[2H][C@](Nc1cc(C#N)c2ncc(C#N)c(NCC(C)(C)C)c2c1)(c1ccc(F)cc1)c1cn(Cc2c(F)cccc2F)nn1` [Example 1078, (S)-6-(((1-(2,6-difluorobenzyl)-1H-1,2,3-triazol-4-yl)(4-fluorophenyl)methyl-d)amino)-4-(neopentylamino)quinoline-3,8-dicarbonitrile], in experiment [1] (setting [3]), the IC50 stood at 12 nM. For the same molecule, in experiment [2] (setting [4]), the EC50 was 175 nM.
Take `CC(C)(C)N1CCC(n2cc([C@@H](Nc3cc(Cl)c4ncc(C#N)c(Nc5ccc(F)c(Cl)c5)c4c3)c3cccc(N)c3)nn2)CC1` [Compound 24]: in experiment [1] (setting [7]), the half-inhibitory concentration (IC50) worked out at 6 nM. In addition, in experiment [2] (setting [6]), the EC50 is 120 nM.
For `[2H][C@](Nc1cc(Cl)c2ncc(C#N)c(NCCc3ccccn3)c2c1)(c1ccc(F)cc1)c1cn(C2CC2)nn1` [Example 270, (S)-8-chloro-6-(((1-cyclopropyl-1H-1,2,3-triazol-4-yl)(4-fluorophenyl)methyl-d)amino)-4-((2-(pyridin-2-yl)ethyl)amino)quinoline-3-carbonitrile], the IC50 in experiment [1] (setting [7]) stood at 96 nM. Besides, the EC50 in experiment [2] (setting [6]) came to 2280 nM.
Turning to `CC(C)(C)CNc1c(C#N)cnc2c(-c3cncnc3)cc(N[C@H](c3cn(C4(C)CC4)nn3)c3ccccc3Cl)cc12` [Example 1037, (S)-6-(((2-chlorophenyl)(1-(1-methylcyclopropyl)-1H-1,2,3-triazol-4-yl)methyl)amino)-4-(neopentylamino)-8-(pyrimidin-5-yl)quinoline-3-carbonitrile], the IC50 in experiment [1] (setting [3]) worked out at 102 nM. Also, the EC50 in experiment [2] (setting [4]) is ≥ 1000 nM.
Take `N#Cc1ccc([C@H](Nc2cc(Cl)c3ncc(C#N)c(Nc4ccc(Cl)c(Cl)c4F)c3c2)c2c[nH]nn2)cc1` [Example 464, (S)-8-chloro-6-(((4-cyanophenyl)(1H-1,2,3-triazol-4-yl)methyl)amino)-4-((3,4-dichloro-2-fluorophenyl)amino) quinoline-3-carbonitrile]: in experiment [1] (setting [5]), the IC50 was 61 nM. In addition, the EC50 in experiment [2] (setting [6]) came out at 694 nM.
Consider `Cn1cnc(C(Nc2cc(Cl)c3ncc(C#N)c(Nc4ccc(F)c(Cl)c4)c3c2)c2ccc(F)c(F)c2)c1` (stereo not shown) [Example 869, 8-chloro-4-((3-chloro-4-fluorophenyl)amino)-6-(((3,4-difluorophenyl)(1-methyl-1H-imidazol-4-yl)methyl)amino)quinoline-3-carbonitrile], for which the IC50 in experiment [1] (setting [5]) came to 125 nM. Moreover, the EC50 in experiment [2] (setting [6]) amounted to 2760 nM.
Consider `Cc1nnc(C2(n3cc([C@@H](Nc4cc(Cl)c5ncc(C#N)c(NCC(C)(C)C)c5c4)c4ccccc4Cl)nn3)CC2)o1` [Example 1110, (S)-8-chloro-6-(((2-chlorophenyl)(1-(1-(5-methyl-1,3,4-oxadiazol-2-yl)cyclopropyl)-1H-1,2,3-triazol-4-yl)methyl)amino)-4-(neopentylamino)quinoline-3-carbonitrile], for which the IC50 in experiment [1] (setting [3]) was determined as 26 nM. Moreover, in experiment [2] (setting [4]), the EC50 amounted to 79 nM.
`N#Cc1cnc2c(Cl)cc(N[C@@H](c3cccc(-c4ncco4)c3)c3cn(C4CC4)nn3)cc2c1Nc1cnc(F)c(F)c1` [Example 450, (S)-8-chloro-6-(((1-cyclopropyl-1H-1,2,3-triazol-4-yl)(3-(oxazol-2-yl)phenyl)methyl)amino)-4-((5,6-difluoropyridin-3-yl)amino)quinoline-3-carbonitrile]: the half-inhibitory concentration (IC50) in experiment [1] (setting [5]) amounted to 3 nM. In addition, in experiment [2] (setting [6]), the EC50 stood at 305 nM.
Taken in the same sequence, the figures for `CN(C)C(=O)c1cccc([C@H](Nc2cc(Cl)c3ncc(C#N)c(Nc4cccc(Cl)c4F)c3c2)c2cn(C3CCN(C(C)(C)C)CC3)nn2)c1` [Example 608, (S)-3-((1-(1-(tert-butyl)piperidin-4-yl)-1H-1,2,3-triazol-4-yl)((8-chloro-4-((3-chloro-2-fluorophenyl)amino)-3-cyanoquinolin-6-yl)amino)methyl)-N,N-dimethylbenzamide] were 1 nM and 41 nM.
For the molecule `N#Cc1cnc2c(Cl)cc(N[C@@H](c3ccc(F)cc3)c3cn(CC(F)(F)F)nn3)cc2c1Nc1cnc(F)c(F)c1` [Example 512, (S)-8-chloro-4-((5,6-difluoropyridin-3-yl)amino)-6-(((4-fluorophenyl)(1-(2,2,2-trifluoroethyl)-1H-1,2,3-triazol-4-yl)methyl)amino)quinoline-3-carbonitrile], the IC50 in experiment [1] (setting [5]) is 85 nM. The EC50 in experiment [2] (setting [6]) is 1100 nM.
